Data taken from patent EP0061208A1, “Insecticidal control of ectoparasites” (JANSSEN PHARMACEUTICA N.V., priority 1981, dated 1982).

Test system: lice
Assay: in-vivo experiment: single pour-on application to louse-infested sheep, evaluation of louse infestation
Parameters: key: +: numphs or adults were detected; -: no live lice were found
Details: single pour-on along the back, solution 5% by weight in 2-(Z-butoxyethoxy)ethanol; for louse infestation, weeks 1: after 1 week; for louse infestation, weeks 2: after 2 weeks; for louse infestation, weeks 3: after 3 weeks; for louse infestation, weeks 4: after 4 weeks; for louse infestation, weeks 6.5: after 6.5 weeks
Description: The efficacy of the ectoparasiticidal method and compositions of the present invention is illustrate by the following in-vivo experiment: • 4 moderately louse-infested sheep were given a single pour-on application of a solution comprising 5% by weight of cypermetrin • in 2-(Z-butoxyethoxy)ethanol. • The louse infestation was evaluated after 1, 2, 3, 4 and 6. 5 weeks. The evaluation of the louse-infestation is illustrated in table 1 wherein • + means that numphs or adults were detected, and • - means that no live lice were found.

CC1(C)C(C=C(Cl)Cl)C1C(=O)OC(C#N)c1cccc(Oc2ccccc2)c1 (stereo not shown) [cypermetrin, [[cyano(3-phenoxyphenyl)]methyl] 2-(2,2-dichloroethenyl)-3,3-dimethylcyclopropanecarboxylate]
-: louse infestation, weeks 6.5 (dose 10 mg/kg) | louse infestation, weeks 1 (dose 20 mg/kg) | louse infestation, weeks 2 (dose 20 mg/kg) | louse infestation, weeks 3 (dose 20 mg/kg) | louse infestation, weeks 4 (dose 20 mg/kg) | louse infestation, weeks 6.5 (dose 20 mg/kg)
+ and -: louse infestation, weeks 1 (dose 10 mg/kg, 10 mg/kg) | louse infestation, weeks 2 (dose 10 mg/kg, 10 mg/kg) | louse infestation, weeks 3 (dose 10 mg/kg, 10 mg/kg) | louse infestation, weeks 4 (dose 10 mg/kg, 10 mg/kg)
